Patent US11445726B2, “Pyridinium salt and pest control agent” (Nippon Soda Co., Ltd., priority 2017, dated 2022)

Columns and labels:
Type in all cases: in vivo
[1] = tested on: Mythimna separata; test: Efficacy test against Mythimna separata (maize leaf dipping); conditions: 125 ppm, maize leaf pieces immersed, second instar larvae, 6 days after release
Protocol: (§1) 5 parts by weight of the compound of the present invention, 93.6 parts by weight of dimethylformamide, and 1.4 parts by weight of polyoxyethylene alkylaryl ether were mixed and dissolved to prepare an emulsion (1) containing 5% of an active ingredient.
The emulsion (1) was diluted with water so that the concentration of the compound of the present invention was 125 ppm. Maize leaf pieces were immersed in the diluent for 30 seconds. The maize leaf pieces were placed in a petri dish, and five second instar larvae of M. separata were released.
The petri dish was left to stand in a thermostatic chamber at a temperature of 25° C. and a humidity of 60% during the test period. Mortality was evaluated when 6 days passed since the release of the insects, and the insecticidal rate was calculated. The test was repeated twice.

[2] = tested on: Spodoptera litura; test: Efficacy test against Spodoptera litura (cabbage leaf dipping); conditions: 125 ppm, cabbage leaves immersed, second instar larvae, 6 days after release
Protocol: as §1
(§2) The emulsion (1) was diluted with water so that the concentration of the compound of the present invention was 125 ppm. Cabbage leaves were immersed in the diluent for 30 seconds. The cabbage leaves were placed in a petri dish, and five second instar larvae of S. litura were released. The petri dish was left to stand in a thermostatic chamber at a temperature of 25° C. and a humidity of 60% during the test period. Mortality was evaluated when 6 days passed since the release of the insects, and the insecticidal rate was calculated. The test was repeated twice.

[3] = tested on: Plutella xylostella; test: Efficacy test against Plutella xylostella (cabbage leaf dipping); conditions: 125 ppm, cabbage leaves immersed, second instar larvae, 3 days after release
Protocol: as §1
as §2, with “The emulsion (I) was diluted” for “The emulsion (1) was diluted”, “leaves were air dried and placed in” for “leaves were placed in”, “larvae of P. xylostella were released.” for “larvae of S. litura were released.”, “evaluated when 3 days passed” for “evaluated when 6 days passed”

[4] = tested on: Tetranychus urticae; test: Efficacy test against Tetranychus urticae (spray on kidney bean plants); conditions: 125 ppm spray on kidney bean plants, adult females removed after 3 days, surviving individuals 10 days after spraying
Excerpt: as §1
98.6 parts by weight of dimethylformamide, and 1.4 parts by weight of polyoxyethylene alkylaryl ether were mixed and dissolved to prepare an emulsion (11) containing no active ingredient.
Kidney bean plants were raised in No. 3 pots, and 8 adult females of T. urticae from Aomori Prefecture were inoculated on primary leaves. The emulsion (I) was diluted with water so that the concentration of the compound of the present invention was 125 ppm. The diluent was sprayed on the kidney bean plants (treated group).
On the same day, the emulsion (11) was diluted 400 times with water. The diluent was sprayed on the kidney bean plants (untreated group).
The above No. 3 pots were left to stand in a thermostatic chamber at a temperature of 25° C. and a humidity of 65% during the test period. The inoculated adult females of T. urticae were removed with an aspirator 3 days after spraying. Eggs were laid on the leaves. The number of surviving individuals was examined 10 days after spraying, and the control rate was calculated according to the following formula. The test was repeated twice. Control rate (%)=100×[1−Nt/Nc] […]

[5] = tested on: Thrips palmi; test: Efficacy test against Thrips palmi (spray on kidney bean leaf piece); conditions: 125 ppm spray, first instar larvae, 2 days
Protocol: as §1
1% agar was poured into a plastic petri dish (90 mm diameter), and a primary leaf piece of a kidney bean plant was placed thereon. 15 first instar larvae of T. palmi were inoculated thereon. The emulsion (I) was diluted with water so that the concentration of the compound of the present invention was 125 ppm. The diluent was sprayed on the leaf piece of the kidney bean plant. The petri dish was left to stand in a thermostatic chamber at a temperature of 25° C. and a humidity of 60% during the test period. Mortality of T. palmi was examined 2 days after that, and the insecticidal rate was calculated. The test was repeated twice.

[6] = tested on: diamide-based insecticide-resistant Plutella xylostella; test: Efficacy test against diamide-based insecticide-resistant Plutella xylostella; conditions: 125 ppm, cabbage leaves immersed, second instar larvae, 3 days
Protocol: as §1
(§3) The emulsion (I) was diluted with water so that the concentration of the compound of the present invention was 125 ppm. Cabbage leaves were immersed in the diluent for 30 seconds. The cabbage leaves were air dried and placed in a petri dish, and five second instar larvae of diamide-based insecticide-resistant P. xylostella were released.
(§4) The petri dish was left to stand in a thermostatic chamber at a temperature of 25° C. and a humidity of 60% during the test period. Mortality was evaluated when 3 days passed since the release of the insects, and the insecticidal rate was calculated. The test was repeated twice.

[7] = tested on: benzoylurea-based insecticide-resistant Helicoverpa armigera; test: Efficacy test against benzoylurea-based insecticide-resistant Helicoverpa armigera; conditions: 125 ppm, cabbage leaves immersed, second instar larvae, 3 days
Protocol: as §1
as §3, with “8” for “five”, “benzoylurea-based” for “diamide-based”, “H. armigera” for “P. xylostella”, “inoculated.” for “released.”
as §4

O=C(N[n+]1ccccc1)c1ccc(Cl)cc1 [comparative compound A] was tested, and the “insecticidal rate against M. separata” value [1] was 0%, the “insecticidal rate against S. litura” value [2] was 0% and the “insecticidal rate against P. xylostella” value [3] was 0%. The “control rate against T. urticae” value [4] was 100%, the “insecticidal rate against T. palmi” value [5] was 0% and the “insecticidal rate against diamide-based insecticide-resistant P. xylostella” value [6] was 0%. For the same molecule, the “insecticidal rate against benzoylurea-based insecticide-resistant H. armigera” value [7] was 0%.
